Test results published in patent publication US8399416B2, “Method of using heparin binding motif for treating asthma” (National Tsing Hua University, priority 2008, dated 2013).
Where a chain is given by its changes, count along the chain named. No end group written: not given here.

Experiments:
ECP mt1 = molecular target: T1, ECP mt1 (Homo sapiens, UniProt P12724, K65A/R61A/R63A/W62A); test: Intrinsic tryptophan fluorescence titration of ECP mt1 with heparin oligosaccharides; type: binding; settings: read-out: Kd, ECP mt1, PBS at 25° C.
T1 construct: recombinant mature ECP was injected into the rat circulation; His6 (C); made in house; host or cells: E. coli BL21-CodonPlus(DE3)
T1 sequence (P12724 28-160 R61A/W62A/R63A/K65A): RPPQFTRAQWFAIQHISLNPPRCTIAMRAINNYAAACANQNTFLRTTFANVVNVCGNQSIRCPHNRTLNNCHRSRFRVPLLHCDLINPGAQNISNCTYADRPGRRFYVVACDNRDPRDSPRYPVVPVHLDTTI
Experimental: (§1) FIG. 5. ITFE profiles of ECP wt and mt1 with dp5. Tryptophan titration emission spectra of […] ECP wt or mt1 bound with dp5. The emission spectra at 340 nm were recorded. The resulting isotherms were fitted by nonlinear regression least-squares computer fit using the KaleidaGraph Synergy Software. ΔF, the relative fluorescence change, equals F0−Fobs, where F0 and Fobs represent the initial and observed fluorescence values, respectively.
Amino acid residues R34, W35, R36, and K38 of ECP were simultaneously substituted to alanine using QuickChange site-directed mutagenesis (Stratagene, La Jolla, Calif.) and the resultant mutant was named ECP mt1. […]
(§2) The binding affinities of wild-type and mutant ECP for heparin oligosaccharides were subsequently monitored by intrinsic tryptophan fluorescence titration (Lau, E. K., et al. (2004) The Journal of biological chemistry 279, 22294-22305).
Binding of ECP to heparin was monitored by changes in intrinsic tryptophan fluorescence emission (IFTE). […] Protein fluorescence measurements were recorded 2 min after each addition on a Hitachi 8000 spectrofluorimeter at emission wavelength of 340 nm using an excitation wavelength of 280 nm. ΔF, the relative fluorescence change, equals F0−Fobs, where F0 and Fobs represent the initial and observed fluorescence values, respectively. […]

ECP wt = molecular target: T2, ECP wt (Homo sapiens, UniProt P12724); test: Intrinsic tryptophan fluorescence titration of ECP wt with heparin oligosaccharides; type: binding; settings: read-out: Kd, ECP wt, PBS at 25° C.
T2 construct: His6 (C); made in house; host or cells: E. coli BL21-CodonPlus (DE3)
T2 sequence (P12724 28-160): T1 sequence (P12724 28-160 R61A/W62A/R63A/K65A) with A34R, A35W, A36R, A38K
Experimental: as §1, §2
(§3) Binding of ECP to heparin was monitored by changes in intrinsic tryptophan fluorescence emission (IFTE). ECP (200 nM) in PBS at 25° C. was titrated with small aliquots of a high concentration of pentasaccharides with minimal dilution (<2%). Protein fluorescence measurements were recorded 2 min after each addition on a Hitachi 8000 spectrofluorimeter at emission wavelength of 340 nm using an excitation wavelength of 280 nm. ΔF, the relative fluorescence change, equals F0−Fobs, where F0 and Fobs represent the initial and observed fluorescence values, respectively. […]

C1 peptide = C1 peptide (Homo sapiens, UniProt P12724); test: Tryptophan fluorescence titration of C1 peptide with heparin oligosaccharides; type: binding; settings: read-out: Kd, C1 peptide; 1 μM peptide; tryptophan fluorescence at 340 nm
Experimental: FIG. 10. Titration profiles of synthetic peptides by synthetic heparin oligosaccharides. Titrations were carried out on 1 μM peptides in the presence of heparin oligosaccharides. The Kd of each peptide-oligosaccharide interaction was determined by measuring the fluorescence change of intrinsic tryptophan at 340 nm. Data were fitted to a single-binding-site curve using nonlinear least-squares analysis.
as §3

[1] = PBS buffer at 25° C.; HMWH 10-20 μM
Experimental: FIG. 11. Isothermal titration calorimetry of heparin-peptide interaction. The top panels show the differential power time course. Raw data for sequential 6-μl injections of each synthetic peptide in PBS buffer at 25° C. TAT (positive control), B, R1 (negative control), C, C1, and D, D1 into the sample cell containing 1.4 ml HMWH solution (10-20 μM). The total heat released in each injection is proportional to the area under the corresponding peak. […] The solid line represents a non-linear least squares of the reaction heat for the injection.

Beas-2B cells = settings: biotinylated peptides, 1 h at 4° C.
Experimental: FIG. 7. Synthetic peptides inhibit ECP binding to cells. A, Beas-2B cells were preincubated with peptides in RPMI 1640 medium for 30 min at 4° C. before incubation with MBP-ECP for an additional 1 h. After treatment, the cells were washed with PBS and fixed with PFA. The level of bound MBP-ECP was assessed by ELISA. The amount of MBP-ECP bound to cells without peptide treatment was set to 100%. The data shown are the means of triplicate experiments. B, Beas2-B cells were incubated with biotinylated peptides for 1 h at 4° C. The amount of peptides bound to cells was assessed as for FIG. 3.
To investigate whether the RWRCK (SEQ ID NO: 8) motif is directly responsible for heparin binding, cell ELISA was conducted using a synthetic peptide, C1 (SEQ ID NO: 3), along with a positive control peptide derived from HIV-TAT, TAT (SEQ ID NO: 6) (Vives, E., et al. (1997) The Journal of biological chemistry 272, 16010-16017; Ziegler, A. and Seelig, J. (2004) Biophysical journal 86, 254-263). […] Therefore, synthetic peptides with heparin binding activity may compete with ECP for cellular binding. Furthermore, the cell surface binding ability of peptides was tested using cell ELISA assay.

[2] = AMAC-labeled LMWH, increasing peptide concentrations, room temperature 15 min
Experimental: FIG. 9. FACE analysis of synthetic peptides. AMAC-labeled LMWH were incubated without or with increasing concentrations of C1, TAT, D1 and R1 peptides at room temperature for 15 min. Samples were loaded and separated by agarose gel electrophoresis as described for FIG. 2.
Synthetic heparin oligosaccharide (FIG. 1) (Lee, C. J., et al. (2004) J Am Chem Soc 126, 476-477), low molecular weight heparin (LMWH) and PI-88 (kindly provided by Progen Inc., Australia) were labeled with 2-aminoacridone (AMAC) as described (Calabro, A., et al. (2000) Glycobiology 10, 273-281). AMAC-oligosaccharide and proteins were incubated at room temperature for 15 min, loaded onto 1% gels and electrophoresed as described (Holmes, O., et al. (2007) J Mol Biol 367, 395-408).
In addition, because EDN contains a conventional heparin binding sequence, the corresponding peptide, D1 (SEQ ID NO: 4), was also synthesized and tested.

[3] = test system: ECP binding to Beas-2B cells; test: Competitive inhibition of MBP-ECP binding to Beas-2B cells (cell ELISA); type: cell-based, human; settings: Beas-2B cells preincubated with peptides 30 min at 4° C.
Experimental: FIG. 3. Heparin oligosaccharides inhibit ECP binding to cells. […] The amount of MBP-ECP bound to cells without GAG treatment was set to 100%. C, control (cells were incubated with MBP.) The data shown are the means of triplicate experiments.
FIG. 7. Synthetic peptides inhibit ECP binding to cells. […] The data shown are the means of triplicate experiments.
Beas-2B, a human bronchial epithelial cell line, was cultured in RPMI 1640 medium (Sigma-Aldrich) supplemented with heat-inactivated 10% fetal bovine serum (Gibco/Invitrogen, Carlsbad, Calif.).
The ability of MBP-ECP to bind cells in the presence of serial dilutions of oligosaccharides or peptides was determined as described (Fan, T. C., et al. (2007) Traffic 8, 1778-1795). At the present invention, synthetic heparins (dp3-9) were tested for their ability to interfere with ECP binding to Beas-2B cells. Briefly, confluent monolayers of Beas-2B cells in 96-well plates were pretreated with various concentrations of oligosaccharides or peptides in serum-free RPMI 1640 medium at 4° C. for 30 min before incubation with 5 μg/ml MBP-ECP at 4° C. for 1 h. The cells were then washed with ice-cold PBS and fixed with 2% PFA at room temperature for 15 min prior to blocking with 2% BSA/PBS at room temperature for 90 min. The level of bound MBP-ECP was quantified by ELISA analysis. MBP-ECP was detected using mouse monoclonal anti-MBP and goat anti-mouse horseradish peroxidase (HRP)-conjugated secondary antibody, followed by the enhanced chemiluminescence detection system. The amount of MBP-ECP bound to cells without oligosaccharide or peptide treatment was set to 100%.

[4] = test system: peri-bronchiolar and alveolar inflammation; set-up: species or system mice; settings: mouse, in vivo
From the text: FIG. 15. Tissue pathology staining in mice. 5-μm formalin-fixed lung sections were stained with H & E in (A) control (B) mIT, (C) eIN, (D) eIN+mIT, (E) mIT+eIN and (F) eIN+mIT+eIN mice. (G) Peribronchial and alveolar inflammation scores.
Animals Study protocol Female Balb/c mice 8 weeks of age were obtained from the National Laboratory Breeding Research Center in Taiwan and were raised in a specific pathogen-free environment. The mice were divided into six groups: (1) control, (2) mite intra-tracheal (mIT) alone, (3) ECP^32-41 (SEQ ID NO: 9) intranasal, (eIN) alone, (4) pre-treated group: eIN+mIT, (5) post-treated group: mIT+eIN and (6) pre+post-treated group eIN+mIT+eIN. Mite crude extract allergen (1.6 μg/μl) was prepared and well emulsified in complete Freund's adjuvant (CFA; Sigma, St Louis, Mo., USA) at a ratio of 1:1 at 4° C. The mIT, eIN and eIN+mIT groups were immunized subcutaneously with 50 μl emulsified mite protein on day 1 and day 8. […]
Histopathological analysis Lung sections stained with hematoxylin and eosin (H&E) were assigned a unit value for alveolar, peri-bronchiolar and total inflammation by computing the means of three independent scores for three randomly selected view-fields. […] Total inflammatory scores were determined as the sum of the peri-bronchiolar and alveolar inflammatory scores. […]

Row | Compound | Kd (ECP mt1) [nM] | Kd (ECP wt) [nM] | Kd (C1 peptide) [nM] | heat release on binding to HMWH (ITC) [1] | cell surface binding ability of peptides (Beas-2B cells) | interaction with LMWH (FACE) [2] | binding of MBP-ECP to cell-surface HS in the presence of peptide [3] | allergic airway inflammatory pathologies (H&E) [4]
1 | CO[C@H]1O[C@H](COS(=O)(=O)O)[C@@H](O[C@@H]2O[C@@H](C(=O)O)[C@@H](O[C@H]3O[C@H](COS(=O)(=O)O)[C@@H](O[C@@H]4O[C@@H](C(=O)O)[C@@H](O[C@H]5O[C@H](COS(=O)(=O)O)[C@@H](O[C@@H]6O[C@@H](C(=O)O)[C@@H](O[C@H]7O[C@H](COS(=O)(=O)O)[C@@H](O[C@@H]8O[C@@H](C(=O)O)[C@@H](O[C@H]9O[C@H](COS(=O)(=O)O)[C@@H](O)[C@H](O)[C@H]9NS(=O)(=O)O)[C@H](O)[C@H]8OS(=O)(=O)O)[C@H](O)[C@H]7NS(=O)(=O)O)[C@H](O)[C@H]6OS(=O)(=O)O)[C@H](O)[C@H]5NS(=O)(=O)O)[C@H](O)[C@H]4OS(=O)(=O)O)[C@H](O)[C@H]3NS(=O)(=O)O)[C@H](O)[C@H]2OS(=O)(=O)O)[C@H](O)[C@H]1NS(=O)(=O)O [dp9] | 400 | 62.6 | 229 | – | – | – | – | –
2 | MTQGRCKPVNK-biotin [R1] | – | – | – | no heat release | devoid of such function | did not bind heparin | – | –
3 | NYRWRCKNQNK-biotin [C1] | – | – | – | exothermal reaction modes were clearly observed | bound to the cell surface | decreased amount of free AMAC-LMWH signal | significantly reduced | –
4 | NYRWRCKNQN [ECP^32-41] | – | – | – | – | – | – | – | did not demonstrate allergic airway inflammatory pathologies
5 | YGRKKRRQRRRK-biotin [TAT] | – | – | – | significant exothermal reaction mode | bound to the cell surface | decreased amount of free AMAC-LMWH signal | significantly reduced | –
